# According to PubChem BioAssay AID2060489 (Molecular Pharmacology Branch, DTP, NCI, 2025):
# Tested on: 922993-354-T-J3-PDC complex spheroids, viability
# Experiment: Anticancer human tumor 922993-354-T-J3-PDC patient-derived endometrial carcinoma cell line growth inhibition [GQUAD]
# Conditions: for IC50: curve of first compound; for viability, T/C: stronger effect = lower value
# Outline: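 Viability of tumor cells grown as complex spheroids with endothelial and stromal cells, exposed to drug combinations. Top concentration at or near clinical Cmax (else 10 microM), diluted in half-log increments.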
# [1] = second compound 0.0316 µM, first compound 0.0316 µM
# [2] = second compound 0.0316 µM, first compound 0.1 µM
# [3] = second compound 0.0316 µM, first compound 0.316 µM
# [4] = second compound 0.0316 µM, first compound 1 µM
# [5] = second compound 0.0316 µM, first compound 3.16 µM
# [6] = second compound 0.0316 µM, first compound 10 µM
# [7] = second compound 0.1 µM, first compound 0.0316 µM
# [8] = second compound 0.1 µM, first compound 0.1 µM
# [9] = second compound 0.1 µM, first compound 0.316 µM
# [10] = second compound 0.1 µM, first compound 1 µM
# [11] = second compound 0.1 µM, first compound 3.16 µM
# [12] = second compound 0.1 µM, first compound 10 µM
# [13] = second compound 0.316 µM, first compound 0.0316 µM
# [14] = second compound 0.316 µM, first compound 0.1 µM
# [15] = second compound 0.316 µM, first compound 0.316 µM
# [16] = second compound 0.316 µM, first compound 1 µM
# [17] = second compound 0.316 µM, first compound 3.16 µM
# [18] = second compound 0.316 µM, first compound 10 µM
# [19] = second compound 1 µM, first compound 0.0316 µM
# [20] = second compound 1 µM, first compound 0.1 µM
# [21] = second compound 1 µM, first compound 0.316 µM
# [22] = second compound 1 µM, first compound 1 µM
# [23] = second compound 1 µM, first compound 3.16 µM
# [24] = second compound 1 µM, first compound 10 µM
# [25] = second compound 3.16 µM, first compound 0.0316 µM
# [26] = second compound 3.16 µM, first compound 0.1 µM
# [27] = second compound 3.16 µM, first compound 0.316 µM
# [28] = second compound 3.16 µM, first compound 1 µM
# [29] = second compound 3.16 µM, first compound 3.16 µM
# [30] = second compound 3.16 µM, first compound 10 µM
# [31] = second compound 10 µM, first compound 0.0316 µM
# [32] = second compound 10 µM, first compound 0.1 µM
# [33] = second compound 10 µM, first compound 0.316 µM
# [34] = second compound 10 µM, first compound 1 µM
# [35] = second compound 10 µM, first compound 3.16 µM
# [36] = second compound 10 µM, first compound 10 µM
# 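Also: spheroids exposed to compounds for seven days.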
# 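For viability, T/C in this document: 100% = DMSO vehicle control viability.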
smiles,measurement,setting,value
COc1cccc2c1C(=O)c1c(O)c3c(c(O)c1C2=O)CC(O)(C(=O)CO)CC3OC1CC(N)C(O)C(C)O1 (stereo not given) + Cc1[nH]c2ccc(F)cc2c1-c1nc2c3cccnc3c3ncccc3c2[nH]1,IC50,second compound 0.0316 µM,9.8 µM
same,IC50,second compound 0.1 µM,> 10 µM
same,IC50,second compound 0.316 µM,> 10 µM
same,IC50,second compound 1 µM,> 10 µM
same,IC50,second compound 3.16 µM,> 10 µM
same,IC50,second compound 10 µM,9.33 µM
same,"viability, T/C",[1],120%
same,"viability, T/C",[2],114%
same,"viability, T/C",[3],99.5%
same,"viability, T/C",[4],83.7%
same,"viability, T/C",[5],76.3%
same,"viability, T/C",[6],46.1%
same,"viability, T/C",[7],118%
same,"viability, T/C",[8],96%
same,"viability, T/C",[9],86.7%
same,"viability, T/C",[10],66.3%
same,"viability, T/C",[11],105%
same,"viability, T/C",[12],56.1%
same,"viability, T/C",[13],96.5%
same,"viability, T/C",[14],105%
same,"viability, T/C",[15],92.6%
same,"viability, T/C",[16],94.1%
same,"viability, T/C",[17],73.2%
same,"viability, T/C",[18],56.1%
same,"viability, T/C",[19],122%
same,"viability, T/C",[20],91.4%
same,"viability, T/C",[21],72.3%
same,"viability, T/C",[22],80.1%
same,"viability, T/C",[23],81.3%
same,"viability, T/C",[24],53.8%
same,"viability, T/C",[25],120%
same,"viability, T/C",[26],73.8%
same,"viability, T/C",[27],71.4%
same,"viability, T/C",[28],88.7%
same,"viability, T/C",[29],74.6%
same,"viability, T/C",[30],46.9%
same,"viability, T/C",[31],97.2%
same,"viability, T/C",[32],81.8%
same,"viability, T/C",[33],89%
same,"viability, T/C",[34],98.4%
same,"viability, T/C",[35],103%
same,"viability, T/C",[36],47.1%
CC1COCCN1c1cc(C2(S(C)(=N)=O)CC2)nc(-c2ccnc3[nH]ccc23)n1 (stereo not given) + CN(C)c1ccc(Nc2c3ccc(NC(=O)CCN4CCCC4)cc3nc3cc(NC(=O)CCN4CCCC4)ccc23)cc1,IC50,second compound 0.0316 µM,> 10 µM
same,IC50,second compound 0.1 µM,> 10 µM
same,IC50,second compound 0.316 µM,> 10 µM
same,IC50,second compound 1 µM,> 10 µM
same,IC50,second compound 3.16 µM,> 10 µM
same,IC50,second compound 10 µM,> 10 µM
same,"viability, T/C",[1],110%
same,"viability, T/C",[2],124%
same,"viability, T/C",[3],127%
same,"viability, T/C",[4],87.1%
same,"viability, T/C",[5],117%
same,"viability, T/C",[6],70.4%
same,"viability, T/C",[7],119%
same,"viability, T/C",[8],121%
same,"viability, T/C",[9],96.4%
same,"viability, T/C",[10],85.2%
same,"viability, T/C",[11],92.1%
same,"viability, T/C",[12],68.4%
same,"viability, T/C",[13],102%
same,"viability, T/C",[14],102%
same,"viability, T/C",[15],89%
same,"viability, T/C",[16],111%
same,"viability, T/C",[17],89.5%
same,"viability, T/C",[18],64.6%
same,"viability, T/C",[19],114%
same,"viability, T/C",[20],116%
same,"viability, T/C",[21],99.9%
same,"viability, T/C",[22],96.5%
same,"viability, T/C",[23],121%
same,"viability, T/C",[24],76.2%
same,"viability, T/C",[25],102%
same,"viability, T/C",[26],128%
same,"viability, T/C",[27],105%
same,"viability, T/C",[28],115%
same,"viability, T/C",[29],108%
same,"viability, T/C",[30],79.3%
same,"viability, T/C",[31],121%
same,"viability, T/C",[32],140%
same,"viability, T/C",[33],130%
same,"viability, T/C",[34],114%
same,"viability, T/C",[35],109%
same,"viability, T/C",[36],93.4%
Nc1ccn(C2OC(CO)C(O)C2(F)F)c(=O)n1 (stereo not given) + Cc1cnc(CNC(=O)c2c(=O)c3ccc(N4CCCN(C)CC4)nc3n3c2sc2ccccc23)cn1,IC50,second compound 0.0316 µM,< 0.0316 µM
same,IC50,second compound 0.1 µM,< 0.0316 µM
same,IC50,second compound 0.316 µM,< 0.0316 µM
same,IC50,second compound 1 µM,< 0.0316 µM
same,IC50,second compound 3.16 µM,< 0.0316 µM
same,IC50,second compound 10 µM,< 0.0316 µM
same,"viability, T/C",[1],29.4%
same,"viability, T/C",[2],28.8%
same,"viability, T/C",[3],23.6%
same,"viability, T/C",[4],21.1%
same,"viability, T/C",[5],23.4%
same,"viability, T/C",[6],21.7%
same,"viability, T/C",[7],26.3%
same,"viability, T/C",[8],23.9%
same,"viability, T/C",[9],29.4%
same,"viability, T/C",[10],21.7%
same,"viability, T/C",[11],25.2%
same,"viability, T/C",[12],27.2%
same,"viability, T/C",[13],34.3%
same,"viability, T/C",[14],34.5%
same,"viability, T/C",[15],30.5%
same,"viability, T/C",[16],30.3%
same,"viability, T/C",[17],31.5%
same,"viability, T/C",[18],27.8%
same,"viability, T/C",[19],38.1%
same,"viability, T/C",[20],50.9%
same,"viability, T/C",[21],54.8%
same,"viability, T/C",[22],34.6%
same,"viability, T/C",[23],46.1%
same,"viability, T/C",[24],39.4%
same,"viability, T/C",[25],39.6%
same,"viability, T/C",[26],45%
same,"viability, T/C",[27],48.3%
same,"viability, T/C",[28],38%
same,"viability, T/C",[29],56.3%
same,"viability, T/C",[30],41.8%
same,"viability, T/C",[31],45.1%
same,"viability, T/C",[32],33.5%
same,"viability, T/C",[33],44.8%
same,"viability, T/C",[34],41.2%
same,"viability, T/C",[35],39.2%
same,"viability, T/C",[36],33.4%
COc1cc(C2c3cc4c(cc3C(OC3OC5COC(C)OC5C(O)C3O)C3COC(=O)C23)OCO4)cc(OC)c1O (stereo not given) + CN(C)c1ccc(Nc2c3ccc(NC(=O)CCN4CCCC4)cc3nc3cc(NC(=O)CCN4CCCC4)ccc23)cc1,IC50,second compound 0.0316 µM,> 10 µM
same,IC50,second compound 0.1 µM,9.49 µM
same,IC50,second compound 0.316 µM,9.2 µM
same,IC50,second compound 1 µM,8.94 µM
same,IC50,second compound 3.16 µM,> 10 µM
same,IC50,second compound 10 µM,> 10 µM
same,"viability, T/C",[1],116%
same,"viability, T/C",[2],90%
same,"viability, T/C",[3],90.7%
same,"viability, T/C",[4],88.1%
same,"viability, T/C",[5],72.5%
same,"viability, T/C",[6],58.3%
same,"viability, T/C",[7],109%
same,"viability, T/C",[8],102%
same,"viability, T/C",[9],91.3%
same,"viability, T/C",[10],85.2%
same,"viability, T/C",[11],81.1%
same,"viability, T/C",[12],46.3%
same,"viability, T/C",[13],90.6%
same,"viability, T/C",[14],101%
same,"viability, T/C",[15],83.7%
same,"viability, T/C",[16],79.5%
same,"viability, T/C",[17],82.9%
same,"viability, T/C",[18],46.9%
same,"viability, T/C",[19],79.7%
same,"viability, T/C",[20],79.7%
same,"viability, T/C",[21],105%
same,"viability, T/C",[22],71.5%
same,"viability, T/C",[23],95.8%
same,"viability, T/C",[24],46.1%
same,"viability, T/C",[25],109%
same,"viability, T/C",[26],99.3%
same,"viability, T/C",[27],114%
same,"viability, T/C",[28],98.5%
same,"viability, T/C",[29],91.8%
same,"viability, T/C",[30],58.3%
same,"viability, T/C",[31],94.4%
same,"viability, T/C",[32],106%
same,"viability, T/C",[33],111%
same,"viability, T/C",[34],79.3%
same,"viability, T/C",[35],106%
same,"viability, T/C",[36],70.5%
C=CC(=O)N1CCN(c2nc(=O)n(-c3c(C)ccnc3C(C)C)c3nc(-c4c(O)cccc4F)c(F)cc23)C(C)C1 (stereo not given) + Cc1cnc(CNC(=O)c2c(=O)c3ccc(N4CCCN(C)CC4)nc3n3c2sc2ccccc23)cn1,IC50,second compound 0.0316 µM,> 10 µM
same,IC50,second compound 0.1 µM,> 10 µM
same,IC50,second compound 0.316 µM,> 10 µM
same,IC50,second compound 1 µM,> 10 µM
same,IC50,second compound 3.16 µM,> 10 µM
same,IC50,second compound 10 µM,0.0316 µM
same,"viability, T/C",[1],109%
same,"viability, T/C",[2],89.1%
same,"viability, T/C",[3],79.2%
same,"viability, T/C",[4],99.5%
same,"viability, T/C",[5],80.4%
same,"viability, T/C",[6],100%
same,"viability, T/C",[7],71.2%
same,"viability, T/C",[8],73.2%
same,"viability, T/C",[9],52.8%
same,"viability, T/C",[10],67%
same,"viability, T/C",[11],77.2%
same,"viability, T/C",[12],53.9%
same,"viability, T/C",[13],49.1%
same,"viability, T/C",[14],57.5%
same,"viability, T/C",[15],51.8%
same,"viability, T/C",[16],53.1%
same,"viability, T/C",[17],55.1%
same,"viability, T/C",[18],61.9%
same,"viability, T/C",[19],55.2%
same,"viability, T/C",[20],61.1%
same,"viability, T/C",[21],46.9%
same,"viability, T/C",[22],47.7%
same,"viability, T/C",[23],53.8%
same,"viability, T/C",[24],55.1%
same,"viability, T/C",[25],53.9%
same,"viability, T/C",[26],55.9%
same,"viability, T/C",[27],55.4%
same,"viability, T/C",[28],51.3%
same,"viability, T/C",[29],65.7%
same,"viability, T/C",[30],53.7%
same,"viability, T/C",[31],52.5%
same,"viability, T/C",[32],58.1%
same,"viability, T/C",[33],53.2%
same,"viability, T/C",[34],46%
same,"viability, T/C",[35],64%
same,"viability, T/C",[36],70%
